Measurements as given in article PMC7701510, “Identification of HN252 as a potent inhibitor of protein phosphatase PPM1B” (Journal of Cellular and Molecular Medicine, 2020).
“Also recorded” adds a separate entry of the source.

Columns and labels:
Assay type in all cases: biochemical
PPM1B = target: T1, PPM1B (Homo sapiens, UniProt O75688); assay: pNPP hydrolysis phosphatase kinetic assay
T1 construct: inferred from pET-28a vector and Ni-NTA purification; made in house; host or cells: Escherichia coli BL21
T1 sequence (O75688 1-479): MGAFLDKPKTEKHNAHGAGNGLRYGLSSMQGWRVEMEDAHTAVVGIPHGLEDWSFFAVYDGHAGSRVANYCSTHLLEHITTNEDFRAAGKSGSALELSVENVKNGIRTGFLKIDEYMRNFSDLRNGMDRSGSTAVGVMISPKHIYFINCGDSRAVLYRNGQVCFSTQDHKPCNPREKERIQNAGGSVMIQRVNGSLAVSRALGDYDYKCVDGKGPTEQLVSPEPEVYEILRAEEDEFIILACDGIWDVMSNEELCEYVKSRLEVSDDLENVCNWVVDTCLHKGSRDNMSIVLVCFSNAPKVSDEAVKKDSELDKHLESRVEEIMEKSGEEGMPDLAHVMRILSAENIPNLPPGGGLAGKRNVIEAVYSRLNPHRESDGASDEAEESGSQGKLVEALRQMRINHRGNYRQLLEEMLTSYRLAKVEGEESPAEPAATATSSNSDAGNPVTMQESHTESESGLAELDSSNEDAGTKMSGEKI
Description: Escherichia coli BL21 strain was transformed with pET‐28a bacterial expression vector harbouring PPM1B and its mutants. ^17 The fusion proteins were induced to be expressed with 0.5 mM isopropyl‐β‐D‐thiogalactoside (IPTG) and purified from bacterial lysate by Ni‐NTA chromatographic matrices (Qiagen) and AKTA FPLC (GE Healthcare Life Sciences) using a Superdex Increase 200 column.
The kinetic assays of PPM1B were carried out at 37°C in 0.1 M acetic acid buffer (50 mM Tris, 40 mM Mn^2+, pH 7.0). The p‐nitrophenyl phosphate (pNPP, Sigma) was used as the substrate which could be conveniently measured at 405 nm. Reactions were started by addition of pNPP to a reaction mixture containing PPM1B (0.4 μM PPM1B, final concentration) and various concentrations of HN252 and stopped by addition of 0.5 M EDTA (pH 10.0) after an appropriate time. The Km value of PPM1B towards pNPP hydrolysis (3.6 mM for pNPP) was used to determine the IC50. The IC50 values, the inhibition constant Ki and inhibition pattern were evaluated as previously described. ^18 The kinetic assays of HN252 towards to other protein phosphatases were carried out as previously described. ^19

PPM1G = target: T2, PPM1G (Homo sapiens, UniProt O15355); assay: pNPP hydrolysis phosphatase assay (selectivity panel); settings: pNPP as substrate
T2 sequence (O15355 1-546): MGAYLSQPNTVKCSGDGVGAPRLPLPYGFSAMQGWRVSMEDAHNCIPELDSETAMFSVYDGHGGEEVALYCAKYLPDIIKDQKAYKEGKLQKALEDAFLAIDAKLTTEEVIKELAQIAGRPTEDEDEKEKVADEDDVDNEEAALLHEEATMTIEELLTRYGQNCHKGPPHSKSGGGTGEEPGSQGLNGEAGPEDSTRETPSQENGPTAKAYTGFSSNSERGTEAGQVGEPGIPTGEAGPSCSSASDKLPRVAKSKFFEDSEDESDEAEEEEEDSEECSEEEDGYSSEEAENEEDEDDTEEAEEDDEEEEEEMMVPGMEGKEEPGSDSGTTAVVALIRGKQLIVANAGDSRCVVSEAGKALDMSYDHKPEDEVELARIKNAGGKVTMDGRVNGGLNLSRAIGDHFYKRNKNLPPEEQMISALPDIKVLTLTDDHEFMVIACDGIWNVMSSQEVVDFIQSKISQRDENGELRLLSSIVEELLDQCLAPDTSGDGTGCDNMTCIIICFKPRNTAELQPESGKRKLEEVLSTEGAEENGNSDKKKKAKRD

PHLPP2 = target: T3, PHLPP2 (Homo sapiens, UniProt Q6ZVD8); assay: as above; settings: pNPP as substrate
T3 sequence (Q6ZVD8 1-1323): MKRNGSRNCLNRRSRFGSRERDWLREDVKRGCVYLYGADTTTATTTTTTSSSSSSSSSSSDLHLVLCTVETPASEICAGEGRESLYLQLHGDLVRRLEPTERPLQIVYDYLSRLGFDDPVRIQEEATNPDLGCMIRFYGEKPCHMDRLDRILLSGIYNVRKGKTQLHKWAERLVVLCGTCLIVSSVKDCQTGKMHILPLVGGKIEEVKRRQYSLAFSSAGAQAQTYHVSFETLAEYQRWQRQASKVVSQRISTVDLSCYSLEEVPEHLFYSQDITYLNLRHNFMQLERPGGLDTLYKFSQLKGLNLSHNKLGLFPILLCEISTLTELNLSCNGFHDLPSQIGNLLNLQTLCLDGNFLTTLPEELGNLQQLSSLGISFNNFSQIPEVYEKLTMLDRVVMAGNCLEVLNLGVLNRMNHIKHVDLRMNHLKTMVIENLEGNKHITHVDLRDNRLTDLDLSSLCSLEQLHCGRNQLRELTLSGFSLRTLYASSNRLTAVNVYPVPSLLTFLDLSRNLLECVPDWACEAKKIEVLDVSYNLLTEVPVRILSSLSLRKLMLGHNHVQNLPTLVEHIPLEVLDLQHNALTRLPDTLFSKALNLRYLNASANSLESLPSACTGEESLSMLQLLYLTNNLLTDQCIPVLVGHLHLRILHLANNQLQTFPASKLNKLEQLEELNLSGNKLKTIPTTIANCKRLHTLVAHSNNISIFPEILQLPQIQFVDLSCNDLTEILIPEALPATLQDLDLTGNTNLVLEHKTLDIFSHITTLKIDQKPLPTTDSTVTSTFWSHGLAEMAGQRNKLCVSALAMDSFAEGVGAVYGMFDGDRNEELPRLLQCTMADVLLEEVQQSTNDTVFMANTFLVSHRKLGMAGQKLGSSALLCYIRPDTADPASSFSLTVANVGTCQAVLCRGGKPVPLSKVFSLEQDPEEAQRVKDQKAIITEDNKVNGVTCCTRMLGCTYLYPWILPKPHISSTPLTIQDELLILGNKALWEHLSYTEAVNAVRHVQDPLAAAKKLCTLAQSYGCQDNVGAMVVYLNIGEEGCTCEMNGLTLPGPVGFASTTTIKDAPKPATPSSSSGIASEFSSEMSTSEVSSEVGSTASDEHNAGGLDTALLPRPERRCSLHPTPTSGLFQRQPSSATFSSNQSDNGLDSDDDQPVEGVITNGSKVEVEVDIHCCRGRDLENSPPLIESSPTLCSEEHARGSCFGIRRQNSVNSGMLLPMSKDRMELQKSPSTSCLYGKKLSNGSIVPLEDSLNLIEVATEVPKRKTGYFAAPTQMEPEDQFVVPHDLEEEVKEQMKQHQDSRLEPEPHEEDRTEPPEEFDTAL

Nc1cc(-c2ccc(-c3ccc(O)c(O)c3)cc2)ccc1C(=O)O [HN252]
inhibition pattern (PPM1B; Lineweaver-Burk plot, pNPP hydrolysis, pH 7.0, 37°C): competitive inhibition; also recorded: classical competitive inhibitor
Ki (PPM1B; Lineweaver-Burk, pNPP, pH 7.0, 37°C, 0.4 μM PPM1B, 40 mM Mn2+): 0.52 ± 0.06 µM
IC50 (PPM1B; pNPP substrate, 0.4 μM PPM1B, 40 mM Mn2+, pH 7.0, 37°C, wild type): 0.76 µM
selectivity: increase in potency against PPM1B than other PSPs (PPM1B; versus PPM1F, PPM1G, PPM1K, PHLPP2, PPM1A a notable exception): about 30 fold
IC50 (PPM1G): 32.6 ± 5.54 µM
IC50 (PHLPP2): 20.9 ± 1.74 µM
